We go through four compounds from patent US12077534B2, “Aza-heterobicyclic inhibitors of MAT2A and methods of use for treating cancer” (Les Laboratoires Servier SAS, priority 2018, dated 2024).

Assay [1] relates to HCT116 MTAP−/−. The assay can be described thus: Inhibition of cellular proliferation (Cell Titer Glo), HCT116 MTAP-/-. The settings on record: Homo sapiens, HCT-116, 96 h, 4 days, read-out: 4 Day Relative Growth Inhibition (MTAP −/−). The class given is cell-based. An outline of the steps:
(§1)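 Isogenic HCT116 MTAP+/+ and MTAP−/− cells treated 24 h after plating with 10-point 3-fold dilutions, then grown 4 days at 37 °C/5% CO2. ATP content read by Cell Titer Glo luminescence, blank-subtracted and normalized to 0.2% DMSO control, plotted as percent proliferation change versus log molar concentration.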
Background: Cellular ATP, detected with luciferase, serves as a proxy for viable cell number.

Assay [2] deals with HCT116 MTAP+/+. The assay can be described thus: Inhibition of cellular proliferation (Cell Titer Glo), HCT116 MTAP+/+. The class given is cell-based. The conditions noted are these: Homo sapiens, HCT-116, 96 h, 4 days, read-out: 4 Day Relative Growth Inhibition (MTAP +/+). An outline of the steps:
as §1

Assay [3] has as its target T1, MAT2A homodimer (Homo sapiens, UniProt P31153).
T1 construct: inferred from Ni sepharose purification and imidazole elution; made in house; host or cells: SF9 insect cells, recombinant baculovirus (Bac to Bac, pFASTBAC1)
Nature of the assay: MAT2A biochemical assay (phosphate release, PiColorLock Gold). The settings on record: recombinant MAT2A homodimer, 60 min pre-incubation, 25° C.; read-out: Enzyme Inhibition. In outline: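 Baculovirus/Sf9-expressed, Ni-purified MAT2A homodimer (4 µg/mL in pH 8.0 Tris/KCl/MgCl2 buffer) preincubated 60 min at 25 °C with compound (2% DMSO final). Substrate mix of 500 µM ATP and 400 µM L-methionine added; 60 min at 25 °C; released phosphate quantified colorimetrically against a phosphate standard curve.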

Assay [4] concerns MAT2A activity (SAM) in HCT116 cells with deleted MTAP gene. Nature of the assay: Cellular assay of target engagement (SAM) by LC-MS/MS. The assay is classed as cell-based. The settings on record: Homo sapiens, HCT-116; HCT116 MTAP −/−, 72 hrs; read-out: Cell 72 h SAM Inhibition (MTAP −/−). An outline of the steps:
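HCT116 MTAP-deleted cells treated with 10-point 3-fold DMSO serial dilutions of compound for 72 hrs at 37° C. Cells lysed in cold 80% methanol/acetic acid extraction buffer with d3-SAM internal standard; SAM quantified by LC-MS/MS (MRM m/z 399.2→250.1).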

T1 sequence (P31153 whole entry): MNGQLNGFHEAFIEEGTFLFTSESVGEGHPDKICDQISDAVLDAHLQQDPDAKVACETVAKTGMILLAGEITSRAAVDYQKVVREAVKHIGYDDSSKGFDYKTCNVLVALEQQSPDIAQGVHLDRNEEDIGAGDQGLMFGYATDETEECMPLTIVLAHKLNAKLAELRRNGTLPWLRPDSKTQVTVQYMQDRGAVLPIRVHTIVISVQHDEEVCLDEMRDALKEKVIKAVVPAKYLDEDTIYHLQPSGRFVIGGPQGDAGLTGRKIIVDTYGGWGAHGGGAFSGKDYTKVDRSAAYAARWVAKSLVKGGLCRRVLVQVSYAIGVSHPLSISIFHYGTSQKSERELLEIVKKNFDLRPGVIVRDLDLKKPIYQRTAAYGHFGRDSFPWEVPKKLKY

On to `[2H]C([2H])([2H])n1cc2cc(-n3nc4ccc(NC([2H])([2H])C([2H])([2H])[2H])nc4c(-c4ccc(C(F)F)nc4)c3=O)ccc2n1` [Example 321, 4-(6-(difluoromethyl)pyridin-3-yl)-6-((ethyl-d5)amino)-2-(2-(methyl-d3)-2H-indazol-5-yl)pyrido[3,2-c]pyridazin-3(2H)-one], for which the IC50 in assay [1] is below 100 nM; in assay [2], at least 1000 nM; in assay [3], below 100 nM; in assay [4], below 100 nM.

Consider `[2H]C([2H])([2H])C([2H])([2H])Nc1ccc2nn(-c3ccc4nn(C)cc4c3)c(=O)c(-c3ccc(C)nc3)c2n1` [Example 323], for which the IC50 in assay [1], in assay [2], in assay [3] and in assay [4] was below 100 nM each time.

`CCNc1ccc2nn(-c3ccc4nc(C)n(C)c4c3)c(=O)c(-c3ccc(C(F)F)nc3)c2n1` [Example 327]: the IC50 was below 100 nM in assay [1], at least 1000 nM in assay [2], below 100 nM in assay [3] and below 100 nM in assay [4].

On to `Cn1cc2cc(-n3nc4ccc(OCC(F)F)nc4c(-c4ccc5[nH]cc(C#N)c5c4)c3=O)ccc2n1` [Example 331, 5-(6-(2,2-difluoroethoxy)-2-(2-methyl-2H-indazol-5-yl)-3-oxo-2,3-dihydropyrido[3,2-c]pyridazin-4-yl)-1H-indole-3-carbonitrile], for which the IC50 in assay [1] is below 100 nM; in assay [2], at least 1000 nM; in assay [3], below 100 nM; in assay [4], below 100 nM.
